From patent publication US8669282B2, “Companion animal compositions including lipoic acid and methods of use thereof” (Hill's Pet Nutrition, Inc., priority 2000, dated 2014)

Experiments:
GSH:GSSG = GSH:GSSG ratio in blood lymphocytes of dogs fed dl-alpha-lipoic acid in extruded food; type: in vivo; settings: chronic feeding in diet
Description: Thirty (30) adult, random source, dogs were utilized for this study. Dogs were at least 10 months of age, not pregnant, not lactating and of reasonable body weight prior to start of test. Animals were randomized into 5 groups for dietary treatment with 3 males and 3 females per each group.
All dogs were fed a control food (0 ppm dl-alpha-lipoic acid added) that met or exceeded all recommendations for nutrients as proposed by the American Association of Feed Control Officials (AAFCO 2000) during a 2 week prefeeding period (Table 2). Following the prefeeding period dogs were randomized into 5 treatment groups with one of the following dl-alpha lipoic acid target-inclusions (dry matter basis): 0 ppm, 150 ppm, 1500 ppm, 3000 ppm, 4500 ppm. […]
Solvents and separation conditions were as described (Fariss, Jones). Levels of GSH and GSSG were quantified relative to authentic standards. […]
Comparison of values for clinical chemistry, hematology and body weights vs baseline were analyzed by way of paired t-test on SAS for windows with significance set at P<0.05. Means of values at each measured time point were separated by a one-way ANOVA with significance set at P<0.05. The difference in GSH:GSSG between day 84 and baseline were analyzed between groups by way of SAS for windows in a one-way ANOVA with significance set at P<0.05.

[1] = system: genes related to cartilage and energy metabolism; assay: Differential gene expression profile, whole blood RNA, canine 2 Affymetrix genechips; type: in vivo, dogs
Description: Thirty (30) dogs were used to determine the effect of lipoic acid when compared to an AAFCO control food or a test food containing fish oil.
A differential gene expression profile was studied between an AAFCO control food, a food containing fish oil, and a food containing lipoic acid. At a minimum of 1.3 fold change, a list of 1212 genes was generated compared to the AAFCO control and 1896 genes compared to the food containing fish oil at d 30.
Total RNAs were isolated from whole blood samples using the PAXgene RNA isolation kit. All measurements were done with the canine 2 Affymetrix genechips. For statistical analysis, all measurements were normalized with RMA. All analysis was preformed using Partek. An ANOVA t-test was performed for genes that are differentially expressed between the control and test foods were selected based on p-value cutoff 0.1, fold change>+/−1.3.
Table 9 illustrates the change in genes related to cartilage metabolism and energy metabolism in dogs after being fed a control diet compared with dogs fed a control plus fish oil and a control plus lipoic acid for 90 days.

plasma metabolites = assay: Plasma metabolomics, fold change at day 30; type: in vivo, dogs
Procedure: Plasma metabolites were analyzed and were compared as fold change relative to the control fed dogs.
Table 5 illustrates the change in pyruvate blood levels in of dogs fed a control diet compared with dogs fed a control plus fish oil and a control plus lipoic acid.
Table 22 illustrates change in metabolite measured in blood samples for dogs after being fed a control diet compared with dogs fed a pet food including lipoic acid for 30 days.

canine bone cells = assay: Genes related to cartilage metabolism altered in canine bone cells; type: in vivo, dogs; settings: 90 days
Description: Table 8 illustrates the directional change (up regulation or down regulation) in genes related to cartilage metabolism in dogs after being fed a control diet compared with dogs fed a control plus fish oil and a control plus lipoic acid for 90 days in canine bone cells.

[2] = system: cartilage markers (CPII, CTXII, COMP); assay: Serum cartilage (arthritic) markers by ELISA; type: in vivo, dogs; settings: for Change CPII / Change CTXII / CPII: blood
Procedure: Serum cartilage markers were measured using ELISA based kits to determine concentrations of cartilage markers. Day 0 was used as a covariate in the analysis to adjust for baseline values.
Table 7 illustrates the change in blood level of arthritic markers in dogs after being fed a control diet compared with dogs fed a control plus fish oil and a control plus lipoic acid for 30 days and measured again at day 90.
Table 12 illustrates arthritic makers measured in blood samples for dogs after being fed a control diet compared with dogs fed a pet food including lipoic acid for 90 days.

[3] = test food containing 150 ppm lipoic acid, fold change >+/-1.3, p cutoff 0.1
[4] = blood, day 30, day 0 as covariate

O=C(O)CCCCC1CCSS1 (racemic) [Lipoic acid, dl-alpha-lipoic acid]
reduced glutathione (GSH) to oxidized glutathione (GSSG) ratio, in words (GSH:GSSG): improves | Fold change Facilitated glucose transporter 6 ([1]; lipoic acid vs. control): 1.3 | Fold change chondroitan sulfate protcoglycan 2 (veriscan) ([1]; lipoic acid vs. control): 1.5 | Fold change N-acetylgalactosaminyl-transferase 1 ([1]; lipoic acid vs. fish oil): 1.3 | number of genes with altered expression vs AAFCO control food [1, 3]: 1212 genes | number of genes with altered expression vs test food containing fish oil [1, 3]: 1896 genes | Fold change in pyruvate, Lipoic acid vs Control (plasma metabolites; [4]): 0.5379 | Fold change in pyruvate, Lipoic acid vs Fish oil (plasma metabolites; [4]): 0.6274 | metabolite hydroxyproline in plasma, in words (plasma metabolites; dogs fed a food containing lipoic acid): reduced | MMP3 gene, directional change (canine bone cells; probe 1582602_at): Down | TIMP2 gene, directional change (canine bone cells; probe 1582708_at): up | Prolyl 4-hydroxylase gene, directional change (canine bone cells; probe 1600479_at): up | Change CPII ([2]; Day 30): −95.10 | Change CTXII ([2]; Day 30): −5.60 | CPII ([2]; Day 30, d 0 as covariate): 986.28 ng/mL | Change CPII ([2]; Day 90): −232.70 | Change CTXII ([2]; Day 90): −0.59 | CPII ([2]; Day 90, d 0 as covariate): 848.0 ng/mL | type II collagen C-propeptide and carboxy-terminal crosslinked telopeptide fragment of type II collagen, in words ([2]; compared with a similar food without lipoic acid): greater decrease
